Measured values: US11040981B2, “Pyrrolotriazine compounds and methods of inhibiting TAM kinases” (Syros Pharmaceuticals, Inc., priority 2017, dated 2021)

Experiments:
FLT3 = molecular target: T1, FLT3 (Homo sapiens, UniProt P36888); assay: TR-FRET kinase activity assay, FLT3; assay type: biochemical; conditions: ATP at Km, 60 minutes
T1 sequence (P36888 27-993): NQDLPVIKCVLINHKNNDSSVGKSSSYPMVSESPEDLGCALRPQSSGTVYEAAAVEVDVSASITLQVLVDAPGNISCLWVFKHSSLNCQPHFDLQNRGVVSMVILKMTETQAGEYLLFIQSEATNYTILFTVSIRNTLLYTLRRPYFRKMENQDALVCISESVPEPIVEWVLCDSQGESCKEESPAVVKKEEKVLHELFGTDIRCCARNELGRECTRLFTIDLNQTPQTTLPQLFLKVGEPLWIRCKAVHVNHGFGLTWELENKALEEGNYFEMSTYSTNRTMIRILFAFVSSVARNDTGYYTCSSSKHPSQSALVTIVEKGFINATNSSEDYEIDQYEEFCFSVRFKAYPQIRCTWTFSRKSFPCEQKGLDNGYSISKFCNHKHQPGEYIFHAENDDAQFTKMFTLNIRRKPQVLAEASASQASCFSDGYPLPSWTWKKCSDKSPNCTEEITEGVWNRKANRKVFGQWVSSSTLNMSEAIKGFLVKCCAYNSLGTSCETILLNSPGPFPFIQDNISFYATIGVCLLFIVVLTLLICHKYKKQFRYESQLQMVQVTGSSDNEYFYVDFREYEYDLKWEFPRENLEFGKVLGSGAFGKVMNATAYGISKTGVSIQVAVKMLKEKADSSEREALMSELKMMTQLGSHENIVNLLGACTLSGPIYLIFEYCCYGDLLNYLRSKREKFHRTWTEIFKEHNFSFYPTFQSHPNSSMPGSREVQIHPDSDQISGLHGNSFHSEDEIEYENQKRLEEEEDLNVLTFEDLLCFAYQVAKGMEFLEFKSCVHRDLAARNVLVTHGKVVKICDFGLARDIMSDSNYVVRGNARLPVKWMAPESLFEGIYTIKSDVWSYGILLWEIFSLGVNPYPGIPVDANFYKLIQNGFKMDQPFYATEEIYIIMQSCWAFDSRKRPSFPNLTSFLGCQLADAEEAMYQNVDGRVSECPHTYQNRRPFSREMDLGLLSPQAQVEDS
In short: (§1)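 IC50 reflects the drop in TR-FRET between Eu anti-phosphotyrosine antibody and labelled peptide after a 60-minute room-temperature reaction. Buffer was 50 mM HEPES pH 7.5 with 10 mM MgCl2, 1 mM EGTA, 0.01% Brij 35 and 1 mM DTT, with ATP at Km per enzyme and EDTA quench.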

MERTK = molecular target: T2, MERTK (Homo sapiens, UniProt Q12866); assay: TR-FRET kinase activity assay, MERTK; assay type: biochemical; conditions: for IC50: TR-FRET activity assay, ATP at Km, 60 minutes, read-out: Mer IC50; for FLT3/Mer ratio (FLT3 IC50/Mer IC50): ratio of Mer to FLT3: FLT3 IC50/Mer IC50
T2 sequence (Q12866 21-999): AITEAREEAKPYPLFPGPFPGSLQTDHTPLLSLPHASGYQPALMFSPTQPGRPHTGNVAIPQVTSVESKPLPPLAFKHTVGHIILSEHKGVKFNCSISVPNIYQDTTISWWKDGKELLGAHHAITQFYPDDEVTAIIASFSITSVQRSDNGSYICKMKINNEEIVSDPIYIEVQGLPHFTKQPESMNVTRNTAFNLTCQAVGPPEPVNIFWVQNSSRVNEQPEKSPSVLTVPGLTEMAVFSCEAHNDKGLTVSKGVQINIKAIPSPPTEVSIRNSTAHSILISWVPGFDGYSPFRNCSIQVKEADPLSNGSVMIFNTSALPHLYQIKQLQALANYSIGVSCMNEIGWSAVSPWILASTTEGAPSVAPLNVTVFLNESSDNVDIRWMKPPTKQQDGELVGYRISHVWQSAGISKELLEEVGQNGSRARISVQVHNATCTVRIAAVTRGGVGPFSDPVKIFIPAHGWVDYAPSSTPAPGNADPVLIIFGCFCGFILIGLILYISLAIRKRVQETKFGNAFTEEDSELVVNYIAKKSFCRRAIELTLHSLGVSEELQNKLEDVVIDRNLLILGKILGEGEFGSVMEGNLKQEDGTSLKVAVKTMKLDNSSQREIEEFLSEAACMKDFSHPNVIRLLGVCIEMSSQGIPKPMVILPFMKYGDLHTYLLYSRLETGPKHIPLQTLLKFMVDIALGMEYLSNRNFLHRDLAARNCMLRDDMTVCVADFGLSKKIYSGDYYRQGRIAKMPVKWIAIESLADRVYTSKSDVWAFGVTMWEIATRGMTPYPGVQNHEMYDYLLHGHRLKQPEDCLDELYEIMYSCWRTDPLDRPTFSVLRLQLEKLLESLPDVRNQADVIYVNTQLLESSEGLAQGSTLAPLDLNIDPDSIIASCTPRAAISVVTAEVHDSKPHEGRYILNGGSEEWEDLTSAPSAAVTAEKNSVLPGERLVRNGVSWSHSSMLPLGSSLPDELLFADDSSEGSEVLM
In short: as §1

| Structure (SMILES) | IC50 (FLT3) | IC50 (MERTK) | FLT3/Mer ratio (FLT3 IC50/Mer IC50) (MERTK) |
| --- | --- | --- | --- |
| COC[C@H](C)Nc1ncc2c(-c3cnn([C@@H]4CCC(C(=O)OC(C)(C)C)C4)c3)cc([C@H]3CC[C@H](O)CC3)n2n1 (stereo partly drawn) [Compound 364] | ≤ 100 nM | ≤ 100 nM | +++ (“+++” represents a ratio of >100) |
| COC[C@H](C)Nc1ncc2c(-c3cnn([C@H]4CCC(C(=O)OC(C)(C)C)C4)c3)cc([C@H]3CC[C@H](O)CC3)n2n1 (stereo partly drawn) [Compound 365] | 100 to 1000 nM | ≤ 100 nM | +++ (“+++” represents a ratio of >100) |
| COCC(C)Nc1ncc2c(-c3cnn(C(C)(C)C(=O)N4CCOC(C)(C)C4)c3)cc(C3CCC(O)CC3)n2n1 (stereo not drawn) [Compound 366] | 1000 to 10000 nM | ≤ 100 nM | +++ (“+++” represents a ratio of >100) |
| COC[C@H](C)Nc1ncc2c(-c3cnn(C(C)(C)C(=O)N4C[C@@H](C)O[C@H](C)C4)c3)cc([C@H]3CC[C@H](O)CC3)n2n1 [Compound 367] | 1000 to 10000 nM | ≤ 100 nM | +++ (“+++” represents a ratio of >100) |
| COC[C@H](C)Nc1ncc2c(-c3cnn(C[C@@H]4CCC(=O)N4)c3)cc([C@H]3CC[C@H](O)CC3)n2n1 [Compound 368] | 100 to 1000 nM | ≤ 100 nM | +++ (“+++” represents a ratio of >100) |
| COC[C@H](C)Nc1ncc2c(-c3ccnc(OC4CCNCC4)c3)cc([C@H]3CC[C@H](O)CC3)n2n1 [Compound 369] | 100 to 1000 nM | ≤ 100 nM | +++ (“+++” represents a ratio of >100) |
| CC(=O)N1CCN(Cc2ccc(-c3cc(C4CCC(O)CC4)n4nc(NC(C)CC(F)(F)F)ncc34)cc2)CC1 (stereo not drawn) [Compound 370] | ≤ 100 nM | ≤ 100 nM | + (“+” represents a ratio of >2.0 and <10) |
| COCC(C)Nc1ncc2c(C3CCCN(C(C)=O)C3)cc(C3CCC(O)CC3)n2n1 (stereo not drawn) [Compound 371] | 1000 to 10000 nM | ≤ 100 nM | +++ (“+++” represents a ratio of >100) |
| COC[C@H](C)Nc1ncc2c([C@@H]3CCCN(C(C)=O)C3)cc([C@H]3CC[C@H](O)CC3)n2n1 [Compound 372] | 1000 to 10000 nM | 100 to 1000 nM | ++ (“++” represents a ratio of between 10 and 100) |
| COCC(C)Nc1ncc2c(C3CCN(c4ccnc(C)n4)C3)cc(C3CCC(O)CC3)n2n1 (stereo not drawn) [Compound 373] | 1000 to 10000 nM | ≤ 100 nM | +++ (“+++” represents a ratio of >100) |
| COCC(C)Nc1ncc2c(C3CCN(c4ccnc(C)n4)C3)cc(C3CCC(O)CC3)n2n1 (stereo not drawn) [Compound 374] | 1000 to 10000 nM | ≤ 100 nM | +++ (“+++” represents a ratio of >100) |
| COC[C@H](C)Nc1ncc2c([C@@H]3CCN(S(C)(=O)=O)C3)cc([C@H]3CC[C@H](O)CC3)n2n1 [Compound 375] | 1000 to 10000 nM | ≤ 100 nM | +++ (“+++” represents a ratio of >100) |
| COC[C@H](C)Nc1ncc2c([C@H]3CCN(S(C)(=O)=O)C3)cc([C@H]3CC[C@H](O)CC3)n2n1 [Compound 376] | 1000 to 10000 nM | ≤ 100 nM | +++ (“+++” represents a ratio of >100) |
| COC[C@H](C)Nc1ncc2c([C@H]3CCCN(c4ccnc(C)n4)C3)cc([C@H]3CC[C@H](O)CC3)n2n1 [Compound 377] | 1000 to 10000 nM | ≤ 100 nM | +++ (“+++” represents a ratio of >100) |
| COC[C@H](C)Nc1ncc2c([C@@H]3CCCN(c4ccnc(C)n4)C3)cc([C@H]3CC[C@H](O)CC3)n2n1 [Compound 378] | 1000 to 10000 nM | ≤ 100 nM | +++ (“+++” represents a ratio of >100) |
| COCC(C)Nc1ncc2c(-c3cnn(CC4CCCO4)c3)cc(C3CCC(O)CC3)n2n1 (stereo not drawn) [Compound 379] | 100 to 1000 nM | ≤ 100 nM | +++ (“+++” represents a ratio of >100) |
| COC[C@H](C)Nc1ncc2c(-c3cnn(CC4CCCO4)c3)cc([C@H]3CC[C@H](O)CC3)n2n1 (stereo partly drawn) [Compound 380] | 100 to 1000 nM | ≤ 100 nM | +++ (“+++” represents a ratio of >100) |
| COC[C@H](C)Nc1ncc2c(-c3ccnc(C)c3)cc([C@H]3CC[C@@](C)(O)CC3)n2n1 [Compound 381] | 1000 to 10000 nM | ≤ 100 nM | +++ (“+++” represents a ratio of >100) |
| COC[C@H](C)Nc1ncc2c(-c3cnn(CCC#N)c3)cc([C@H]3CC[C@](C)(O)CC3)n2n1 [Compound 382] | 100 to 1000 nM | ≤ 100 nM | +++ (“+++” represents a ratio of >100) |
| CNC(=O)c1cc(-c2cc([C@H]3CC[C@H](O)CC3)n3nc(N[C@@H](C)CC(F)(F)F)ncc23)ccn1 [Compound 384] | ≤ 100 nM | ≤ 100 nM | +++ (“+++” represents a ratio of >100) |
| CNC(=O)c1cc(-c2cc([C@H]3CC[C@H](O)CC3)n3nc(N[C@@H](C)COC(F)F)ncc23)cc(C)n1 [Compound 385] | 1000 to 10000 nM | ≤ 100 nM | +++ (“+++” represents a ratio of >100) |
| COC[C@H](C)Nc1ncc2c(-c3ccnc(O[C@H]4CCNC4)c3)cc([C@H]3CC[C@H](O)CC3)n2n1 [Compound 386] | 100 to 1000 nM | ≤ 100 nM | +++ (“+++” represents a ratio of >100) |
| C[C@@H](CN(C)C)Nc1ncc2c(-c3cnn(C4COC4)c3)cc([C@H]3CC[C@H](O)CC3)n2n1 [Compound 387] | 1000 to 10000 nM | 100 to 1000 nM | ++ (“++” represents a ratio of between 10 and 100) |
| C[C@H](CN(C)C)Nc1ncc2c(-c3cnn(C4COC4)c3)cc([C@H]3CC[C@H](O)CC3)n2n1 [Compound 388] | 1000 to 10000 nM | 100 to 1000 nM | ++ (“++” represents a ratio of between 10 and 100) |
| COC[C@H](C)Nc1ncc2c(-c3ccnc(O[C@H]4CCCNC4)c3)cc([C@H]3CC[C@H](O)CC3)n2n1 [Compound 389] | 100 to 1000 nM | ≤ 100 nM | +++ (“+++” represents a ratio of >100) |
| COC[C@H](C)Nc1ncc2c(-c3ccnc(O[C@@H]4CCCNC4)c3)cc([C@H]3CC[C@H](O)CC3)n2n1 [Compound 390] | 100 to 1000 nM | ≤ 100 nM | +++ (“+++” represents a ratio of >100) |
| COC[C@H](C)Nc1ncc2c(-c3ccnc(C)c3)cc([C@H]3CC[C@](C)(O)CC3)n2n1 [Compound 391] | 100 to 1000 nM | ≤ 100 nM | +++ (“+++” represents a ratio of >100) |
